Data from patent publication US10552557B2, “Freshening compositions and devices comprising same” (The Procter & Gamble Company, priority 2014, dated 2020).

Experiment: Blocker Index (BI), expert graders, isovaleric acid malodorous swatch treated with test material
Excerpt: Blocker materials suitable for use in consumer products of the present invention are chosen for their ability to decrease malodor, while not interfering with perception of a fragrance. Material selection is done by assigning two indices to a test sample material from two reference scales in order to rank odor strengths. The two reference scales are the Fragrance Fidelity Index (FFI) scale and the Blocker Index (BI) scale. The FFI ranks the ability of the test sample material to impart a perceivable odor which could cause interference when combined with another fragrance and the BI ranks the ability of the test sample material to reduce malodor perception. The two methods for assigning the indices to a test sample on the FFI and the BI reference scales are given below.
The first step in the method for assigning a BI to a test sample material on the BI reference scale is to create the BI reference swatches. […] Fabric swatches for this test are white knit polycotton (4 inch×4 inch) swatches from EMC ordered as PC 50/50. The supplier is instructed to strip the swatches first, stripping involves washing twice with a fragrance-free detergent and rinsing three times.
The BI scale contains one clean swatch with no malodor applied. […] These solutions are pipetted to the middle of the swatches. […] After drying for 30 minutes in a vented hood, the swatches are wrapped in aluminum foil to prevent odor contamination to the treated swatch. A clean untreated swatch is also included as the lowest anchor point of reference for malodor strength on the BI scale. The BI reference scale swatches should be used within 0.5 to 12 hours and discarded after 12 hours. The swatches are used as scale anchor points when graders evaluate a test sample(s) and are assigned a Blocker Index (BI) as show in Table 12.
The perfumer/expert grader is asked to rank order swatches according to a scale between 0 and 3.
The reference swatches represent the 0, 1, 2, and 3 BIs on the BI reference scale, Table 12. The expert grader should familiarizes him/herself with the strength of the odor on the BI reference swatches by sniffing each one starting at 0 (the lowest odor strength) and ending at 3 (the highest odor strength). This should be done prior to evaluating the swatch treated with the test material.
To evaluate the BI, the test material is applied to a malodorous swatch to determine how well the test material blocks the malodor. […] After drying the malodorous swatch a known concentration of test material solution, between 1 ppm and 100 ppm is pipetted onto the malodorous swatch. […] It is sometimes necessary to evaluate several levels of the test material between about 1 and about 100 ppm to determine the BI.
At least two perfumers/expert graders are used to assign the BI to the test sample. […] The test sample swatch is assigned a BI at or between numbers on the BI in table.

[1] = Conc 10 ppm test material on isovaleric acid malodorous swatch
[2] = Conc 50 ppm test material on isovaleric acid malodorous swatch

Row | SMILES | BI [1] | BI [2] | BI of reference swatch, Ave (2 μL 0.08% solution, all graders (Table 10))
1 | CC1(C)CCc2ccc(CCC=O)cc21 | 1.5 | 2.7 | 
2 | CC1CCC2(C(C)C)CC(C)OC2C1 (stereo not shown) | 2.0 | 2.2 | 
3 | CCC(=O)OC1CC2C3C=CCC3C1C2(C)C (stereo not shown) [8,8-dimethyl-3a,4,5,6,7,7a-hexahydro-1H-4,7-methanoinden-6-yl propionate] | 1.5 | 2.2 | 
4 | CC(C)CC(=O)O [isovaleric acid, reference compound] |  |  | 1.0
